pEC50, pIC50: −log10 of the molar value.
Experiments:
[1] = target: human PD-L1 (Homo sapiens (Human), UniProt Q9NZQ7); experiment: T cell activation luciferase reporter cell culture system (T Cell Activation Assay); type: cell-based; conditions: luciferase reporter assay; PD-L1 aAPC/CHO-K1 cells with PD-1 effector Jurkat T cells
[2] = target: PD-L1 His protein / PD-1 Fc protein (Homo sapiens (Human), UniProt Q9NZQ7); experiment: HTRF Assay (PD-1/PD-L1 interaction); type: binding; conditions: PD-L1 His 6 nM, PD-1 Fc 6 nM
Chain of PD-L1 His protein / PD-1 Fc protein (Q9NZQ7 19-238): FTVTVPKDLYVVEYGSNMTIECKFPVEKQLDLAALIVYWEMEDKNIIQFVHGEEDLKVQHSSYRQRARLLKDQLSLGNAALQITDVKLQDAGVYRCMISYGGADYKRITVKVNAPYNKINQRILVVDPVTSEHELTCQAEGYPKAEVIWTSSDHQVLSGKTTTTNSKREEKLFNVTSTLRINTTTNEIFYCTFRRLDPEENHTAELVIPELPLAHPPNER

Chain of human PD-L1 (Q9NZQ7 19-290): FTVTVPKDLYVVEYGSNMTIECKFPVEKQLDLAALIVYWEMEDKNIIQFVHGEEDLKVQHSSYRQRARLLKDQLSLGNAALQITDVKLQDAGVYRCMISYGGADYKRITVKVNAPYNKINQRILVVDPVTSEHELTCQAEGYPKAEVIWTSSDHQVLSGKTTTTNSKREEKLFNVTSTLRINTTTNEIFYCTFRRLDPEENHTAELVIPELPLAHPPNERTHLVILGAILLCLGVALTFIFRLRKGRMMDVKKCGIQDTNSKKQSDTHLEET

SMILES | pEC50 [1] | pIC50 [2]
COc1cc(-c2nccc(-c3cccc(-c4ccc(CNC5CCN(CCO)CC5)c(OC)n4)c3Cl)c2Cl)ccc1CNC1CCN(CCO)CC1 [Example 328, 2-(4-(((6-(2-Chloro-3-(3-chloro-2-(4-(((1-(2-hydroxyethyl)piperidin-4-yl)amino)methyl)-3-methoxyphenyl)pyridin-4-yl)phenyl)-2-methoxypyridin-3-yl)methyl)amino)piperidin-1-yl)ethan-1-ol] | 7.55 | 8.82
COc1nc(-c2cccc(-c3ccnc(-c4ccc5c(CN6CC7(C6)CN(C(C)=O)C7)nn(C)c5c4)c3Cl)c2Cl)ccc1CNC[C@@H]1CCC(=O)N1 [Example 308, (S)-5-((((6-(3-(2-(3-((6-Acetyl-2,6-diazaspiro[3.3]heptan-2-yl)methyl)-1-methyl-1H-indazol-6-yl)-3-chloropyridin-4-yl)-2-chlorophenyl)-2-methoxypyridin-3-yl)methyl)amino)methyl)pyrrolidin-2-one] | 7.62 | 9.02
COc1cc(-c2nccc(-c3cccc(-c4ccc(CNC[C@@H]5CCC(=O)N5)c(OC)n4)c3Cl)c2Cl)cc(F)c1CNC1CC2(C1)CN(C(C)=O)C2 [Compound 210, (S)-5-((((6-(3-(2-(4-(((2-acetyl-2-azaspiro[3.3]heptan-6-yl)amino)methyl)-3-fluoro-5-methoxyphenyl)-3-chloropyridin-4-yl)-2-chlorophenyl)-2-methoxypyridin-3-yl)methyl)amino)methyl)pyrrolidin-2-one] | 7.58 | 8.67
COc1nc(-c2cccc(-c3ccnc(-c4ccc5c(c4)S(=O)(=O)CCN(C[C@@H]4CCC(=O)N4)C5)c3Cl)c2Cl)ccc1CNC[C@@H]1CCC(=O)N1 [Example 582, (S)-5-((((6-(2-Chloro-3-(3-chloro-2-(1,1-dioxido-4-(((S)-5-oxopyrrolidin-2-yl)methyl)-2,3,4,5-tetrahydrobenzo[f][1,4]thiazepin-8-yl)pyridin-4-yl)phenyl)-2-methoxypyridin-3-yl)methyl)amino)methyl)pyrrolidin-2-one] | 5.98 | 8.80
COc1cc(-c2nccc(-c3cccc(-c4ccc5c(CNC6CCN(C(C)=O)CC6)cn(C)c5n4)c3Cl)c2Cl)ccc1CNCCO [Compound 560, 1-(4-(((6-(2-Chloro-3-(3-chloro-2-(4-(((2-hydroxyethyl)amino)methyl)-3-methoxyphenyl)pyridin-4-yl)phenyl)-1-methyl-1H-pyrrolo[2,3-b]pyridin-3-yl)methyl)amino)piperidin-1-yl)ethan-1-one] | 7.24 | 8.78
COC(=O)C1CN(Cc2nn3cc(-c4nccc(-c5cccc(-c6ccc(CNC[C@@H]7CCC(=O)N7)c(OC)n6)c5Cl)c4Cl)cc3c(=O)n2C)C1 [Compound 182, methyl (S)-1-((6-(3-chloro-4-(2-chloro-3-(6-methoxy-5-((((5-oxopyrrolidin-2-yl)methyl)amino)methyl)pyridine-2-yl)phenyl)pyridine-2-yl)-3-methyl-4-oxo-3,4-dihydropyrrolo[2,1-f][1,2,4]pyridine-2-yl)methyl)azetidine-3-carboxylate] | 7.41 | 8.61
COc1nc(-c2ccnc(-c3cccc4c3CC[C@@H]4Nc3nc(OC)c(CNC[C@@H]4CCC(=O)N4)cc3C(F)(F)F)c2Cl)ccc1CNC[C@@H]1CCC(=O)N1 [Compound 223, (S)-5-((((3′-chloro-6-methoxy-2′-((S)-1-((6-methoxy-5-(((((S)-5-oxopyrrolidin-2-yl)methyl)amino)methyl)-3-(trifluoromethyl)pyridin-2-yl)amino)-2,3-dihydro-1H-inden-4-yl)-[2,4′-bipyridin]-5-yl)methyl)amino)methyl)pyrrolidin-2-one] | 7.78 | 8.14
COc1nc(-c2cccc(-c3nccc(-c4ccc(CNC5CCN(C(C)=O)CC5)c(OC)n4)c3Cl)c2Cl)ccc1CN1CC2(CNC(=O)C2)C1 [Compound 682, 2-((6-(3-(5-(((1-Acetylpiperidin-4-yl)amino)methyl)-3′-chloro-6-methoxy-[2,4′-bipyridin]-2′-yl)-2-chlorophenyl)-2-methoxypyridin-3-yl)methyl)-2,6-diazaspiro[3.4]octan-7-one] | 7.61 | 9.77
COc1nc(-c2cccc(-c3ccnc(-c4ccc(CN5CC6(CNC(=O)C6)C5)c(OC(F)F)c4)c3Cl)c2Cl)ccc1CNC1CCN(C(C)=O)CC1 [Example 684, 2-(4-(4-(3-(5-(((1-Acetylpiperidin-4-yl)amino)methyl)-6-methoxypyridin-2-yl)-2-chlorophenyl)-3-chloropyridin-2-yl)-2-(difluoromethoxy)benzyl)-2,6-diazaspiro[3.4]octan-7-one] | 7.46 | 8.74
COc1cc(-c2nccc(-c3cccc(NC(=O)c4cn(C)c(=O)n(C)c4=O)c3Cl)c2Cl)ccc1CN1CC2(CNC(=O)C2)C1 [Example 658, N-(2-Chloro-3-(3-chloro-2-(3-methoxy-4-((7-oxo-2,6-diazaspiro[3.4]octan-2-yl)methyl)phenyl)pyridin-4-yl)phenyl)-1,3-dimethyl-2,4-dioxo-1,2,3,4-tetrahydropyrimidine-5-carboxamide] | 6.31 | 9.60
CNCc1ccc(-c2cccc(-c3ccnc(-c4ccc(CNC[C@@H](O)CC(=O)OC(C)C)c(OC)c4)c3Cl)c2Cl)nc1OC [Example 280, Isopropyl (S)-4-((4-(3-chloro-4-(2-chloro-3-(6-methoxy-5-((methylamino)methyl)pyridin-2-yl)phenyl)pyridin-2-yl)-2-methoxybenzyl)amino)-3-hydroxybutanoate] | 6.95 | 7.54
COc1cc(-c2ncnc(-c3cccc(-c4ccc(CNC5CCN(C(C)=O)CC5)c(OC)n4)c3Cl)c2Cl)ccc1CNC1CCN(C(C)=O)CC1 [Example 540, 1-(4-(((6-(3-(6-(4-(((1-Acetylpiperidin-4-yl)amino)methyl)-3-methoxyphenyl)-5-chloropyrimidin-4-yl)-2-chlorophenyl)-2-methoxypyridin-3-yl)methyl)amino)piperidin-1-yl)ethan-1-one] | 7.06 | 9.30
COc1nc(-c2cccc(-c3ccnc(-c4cc5c(=O)n(C)c(CN6CC(C)(O)C6)nn5c4)c3Cl)c2Cl)ccc1CNC[C@@H]1CCC(=O)N1 [Compound 110, (S)-6-(3-chloro-4-(2-chloro-3-(6-methoxy-5-((((5-oxopyrrolidin-2-yl)methyl)amino)methyl)pyridin-2-yl)phenyl)pyridin-2-yl)-2-((3-hydroxy-3-methylazetidin-1-yl)methyl)-3-methylpyrrolo[2,1-f][1,2,4]triazin-4(3H)-one] | 7.22 | 9.05
COc1cc(-c2nccc(-c3cccc(-c4ccc(CNC5CCN(C(=O)C6CC6)CC5)c(OC)n4)c3Cl)c2Cl)cc(F)c1CNC1CCN(C(=O)C2CC2)CC1 [Example 316, (4-(((6-(2-Chloro-3-(3-chloro-2-(4-(((1-(cyclopropanecarbonyl)piperidin-4-yl)amino)methyl)-3-fluoro-5-methoxyphenyl)pyridin-4-yl)phenyl)-2-methoxypyridin-3-yl)methyl)amino)piperidin-1-yl)(cyclopropyl)methanone] | 7.34 | 8.46
CNCc1ccc(-c2cccc(-c3ccnc(-c4ccc(CNC[C@@H](O)CC(=O)O)c(OC)c4)c3Cl)c2Cl)nc1OC [Compound 220, (S)-4-((4-(3-chloro-4-(2-chloro-3-(6-methoxy-5-((methylamino)methyl)pyridin-2-yl)phenyl)pyridin-2-yl)-2-methoxybenzyl)amino)-3-hydroxybutanoic acid] | 7.12 | 8.66
COc1cc(-c2nccc(-c3cccc(-c4ccc(CN5CC6(CCOCC6)C5)c(OC)n4)c3Cl)c2Cl)ccc1CN1CC2(CCOCC2)C1 [Example 470, 2-((6-(3-(2-(4-((7-Oxa-2-azaspiro[3.5]nonan-2-yl)methyl)-3-methoxyphenyl)-3-chloropyridin-4-yl)-2-chlorophenyl)-2-methoxypyridin-3-yl)methyl)-7-oxa-2-azaspiro[3.5]nonane] | 6.72 | 7.71
COc1cc(-c2nccc(-c3cccc(-c4ccc(CNC5CC6(C5)CN(C(C)=O)C6)c(OC)n4)c3C(F)(F)F)c2Cl)ccc1CNC1CC2(C1)CN(C(C)=O)C2 (stereo not shown) [Example 651, 1-(6-(((6-(3-(2-(4-(((2-Acetyl-2-azaspiro[3.3]heptan-6-yl)amino)methyl)-3-methoxyphenyl)-3-chloropyridin-4-yl)-2-(trifluoromethyl)phenyl)-2-methoxypyridin-3-yl)methyl)amino)-2-azaspiro[3.3]heptan-2-yl)ethan-1-one] | ≤ 5.00 | 8.39
COc1nc(-c2cccc(-c3ccnc(-c4ccc(CNC5CCOCC5)c(OC)n4)c3Cl)c2Cl)ccc1CNC1CCOCC1 [Compound 629, N-((6-(2-Chloro-3-(3-chloro-6′-methoxy-5′-(((tetrahydro-2H-pyran-4-yl)amino)methyl)-[2,2′-bipyridin]-4-yl)phenyl)-2-methoxypyridin-3-yl)methyl)tetrahydro-2H-pyran-4-amine] | 6.94 | 9.18
COc1cc(-c2nccc(-c3cccc(NC(=O)c4ccc(CNCCO)cn4)c3C)c2Cl)ccc1CNCCO [Example 648, N-(3-(3-Chloro-2-(4-(((2-hydroxyethyl)amino)methyl)-3-methoxyphenyl)pyridin-4-yl)-2-methylphenyl)-5-(((2-hydroxyethyl)amino)methyl)picolinamide] | 6.85 | 10.30
Cc1c(NC(=O)c2ccc(CNCCO)cn2)cccc1-c1ccnc(-c2ccc(CNC[C@@H]3CCC(=O)N3)c(OC(F)F)c2)c1Cl [Example 770, (S)—N-(3-(3-Chloro-2-(3-(difluoromethoxy)-4-((((5-oxopyrrolidin-2-yl)methyl)amino)methyl)phenyl)pyridin-4-yl)-2-methylphenyl)-5-(((2-hydroxyethyl)amino)methyl)picolinamide] | 7.61 | 9.12
